Data published in patent US20150306096A1, “8'-HYDROXY-DIHYDROERGOTAMINE COMPOUNDS AND COMPOSITIONS” (MAP Pharmaceuticals, Inc., priority 2012, published 2015).
Where two headings read alike, the source gives them in different places.

Legend:
[1] = target: T1, human Serotonin 5-HT1B receptor (Homo sapiens, UniProt P28222); experiment: GTPγS functional assay; format: biochemical; conditions: read-out: Functional activity (agonist)
T1 construct: purchased Euroscreen
Protocol: (§1) Functional profiling of agonist and antagonist activities of 8′-OH DHE on human Adrenergic α1D, Dopamine D2L, and Serotonin 5-HT1B, 5-HT1D, 5-HT1F, 5-HT3, 5-HT4e and 5-HT5A receptors (compared against the parent (DHE) molecule) was carried out as follows.
(§2) The SPA 35S-GTPγS tests were conducted with Euroscreen membrane preparations […]. The HTRF assays were conducted with recombinant cell lines. The receptor accession numbers, cellular background and reference compounds are as reported below in Table 10.
(3) 8′-OH DHE was tested for agonist and antagonist activity at the human Serotonin 5-HT1B and Serotonin 5-HT1D receptors using GTPγS assay (in triplicate) at the following nanomolar concentrations: […]
The assay procedure was carried out as follows. […] The plates were then centrifuged for 10 minutes at 2,000 rpm and counted for 1 min/well with a Perkin Elmer TopCount reader.
(§3) Agonist activity of the test compounds was expressed as a percentage of the activity of the reference agonist at its EC100 concentration. Antagonist activity of the test compounds was expressed as a percentage of the inhibition of the reference agonist activity at its EC80 concentration. Dose-response data from the test compounds were analyzed with XLfit (IDBS) software using nonlinear regression applied to a sigmoidal dose-response model and the following equation: […]

[2] = target: T2, human Serotonin 5-HT5A receptor (Homo sapiens, UniProt P47898); experiment: Aequorin functional assay (agonist/antagonist); format: cell-based
T2 construct: expressed in transfected cells; host or cells: CHO-K1 or HEK-293, coexpressing mitochondrial apoaequorin
T2 sequence (P47898 whole entry): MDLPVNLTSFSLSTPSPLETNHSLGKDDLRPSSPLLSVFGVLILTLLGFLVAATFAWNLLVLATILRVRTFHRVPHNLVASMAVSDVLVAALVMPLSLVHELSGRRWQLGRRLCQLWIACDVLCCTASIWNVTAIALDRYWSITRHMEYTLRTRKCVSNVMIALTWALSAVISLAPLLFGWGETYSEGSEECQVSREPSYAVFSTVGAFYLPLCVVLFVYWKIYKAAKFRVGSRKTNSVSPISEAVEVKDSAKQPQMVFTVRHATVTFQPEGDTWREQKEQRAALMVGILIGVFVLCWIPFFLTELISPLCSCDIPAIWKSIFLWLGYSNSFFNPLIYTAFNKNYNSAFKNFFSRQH
Protocol: as §1, §2
(§4) (1) DHE and 8′-OH DHE were tested for agonist and antagonist activity at the human Adrenergic α1D, Serotonin 5-HT3 and Serotonin 5-HT5A receptors using aequorin assay (in triplicate) at the following nanomolar concentrations:
(§5) (5) DHE was tested for agonist and antagonist activity at the human Adrenergic α1D, Serotonin 5-HT3 and Serotonin 5-HT5A receptors using aequorin assay (in triplicate), and at the human Dopamine D2L, Serotonin 5-HT1F and Serotonin 5-HT4E receptors using cAMP HTRF assay (in triplicate) at the following nanomolar concentrations:
(§6) (6) 8′-OH DHE was tested for agonist and antagonist activity at the human Adrenergic α1D, Serotonin 5-HT3 and Serotonin 5-HT5A receptors using aequorin assay (in triplicate), at the human Dopamine D2L, Serotonin 5-HT1F and Serotonin 5-HT4E receptors using cAMP HTRF assay (in triplicate), and at the human Serotonin 5-HT1B and Serotonin 5-HT1D receptors using GTPγS assay (in triplicate) at the following nanomolar concentrations:
(§7) CHO-K1 or HEK-293 cells coexpressing mitochondrial apoaequorin and recombinant human […], or recombinant human Serotonin 5-HT3 receptor, or recombinant human Serotonin 5-HT5A receptor grown to mid-log phase in culture media without antibiotics were detached with PBS-EDTA, centrifuged and resuspended in assay buffer (DMEMHAM's F12 with HEPES, without phenol red+0.1% BSA protease free) at a concentration of 1×10^6 cells/mL. Cells were incubated at RT for at least 4 hours with coelenterazine h. The reference agonist was tested to evaluate performance of the assay on each day of the test and to determine EC50. For agonist testing, 50 μL of cell suspension was mixed with 50 μL of test compound or reference agonist in a 96-well plate. The resulting emission of light was recorded using Hamamatsu Functional Drug Screening System 6000 (FDSS 6000 luminometer). For antagonist testing, 100 μL of the reference agonist at its EC80 was injected on the mix of cells and test compounds, following an incubation of 15 minutes after the first injection. The resulting emission of light was recorded using the FDSS 6000 luminometer. To standardize the emission of recorded light (determination of the ‘100% signal’) across plates and across different experiments, some of the wells contained 100 μM digitonin or a saturating concentration of ATP (20 μM).
as §3

[3] = target: T3, human Adrenergic α1D receptor (Homo sapiens, UniProt P25100); experiment: Aequorin functional assay (agonist/antagonist); format: cell-based
T3 construct: expressed in transfected cells; host or cells: CHO-K1 or HEK-293, coexpressing mitochondrial apoaequorin
T3 sequence (P25100 whole entry): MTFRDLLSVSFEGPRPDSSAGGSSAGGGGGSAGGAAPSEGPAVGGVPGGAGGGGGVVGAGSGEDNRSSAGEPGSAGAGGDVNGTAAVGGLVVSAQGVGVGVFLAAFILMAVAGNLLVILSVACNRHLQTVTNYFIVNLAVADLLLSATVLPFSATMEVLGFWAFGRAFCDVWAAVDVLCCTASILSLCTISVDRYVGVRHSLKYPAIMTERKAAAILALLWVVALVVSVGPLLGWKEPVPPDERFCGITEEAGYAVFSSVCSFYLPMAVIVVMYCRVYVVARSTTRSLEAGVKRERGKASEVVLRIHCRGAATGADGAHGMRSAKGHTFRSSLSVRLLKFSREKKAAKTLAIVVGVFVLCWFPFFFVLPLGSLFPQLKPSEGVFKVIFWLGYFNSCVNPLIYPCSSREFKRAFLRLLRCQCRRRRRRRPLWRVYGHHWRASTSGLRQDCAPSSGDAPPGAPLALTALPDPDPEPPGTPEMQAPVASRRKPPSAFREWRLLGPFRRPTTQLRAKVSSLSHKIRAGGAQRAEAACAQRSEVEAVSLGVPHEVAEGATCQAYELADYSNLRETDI
Protocol: as §1, §2, §4, §5, §6, §7, §3

[4] = test system: Purinergic (P2X1/P2X2/P2X3/P2X4/P2X7); experiment: Purinergic receptor QPatch patch clamp (agonist/antagonist); format: cell-based, human; conditions: P2X receptors, 30 and 100 μM
Protocol: Purinergic receptor studies were conducted to monitor activity of 8′-OH DHE against the P2X1, P2X2, P2X3, P2X4 and P2X7 receptors. Human recombinant purinergic receptor-expressing HEK293 cells were used, and receptor activity was evaluated at RT using QPatch HT® (Sophion Bioscience A/S, Denmark) automatic parallel patch clamp system. The test 8′-OH DHE compound was evaluated in both agonist and antagonist modes at 30 and 100 μM. Each concentration was tested in triplicate.

T1 sequence (P28222 whole entry): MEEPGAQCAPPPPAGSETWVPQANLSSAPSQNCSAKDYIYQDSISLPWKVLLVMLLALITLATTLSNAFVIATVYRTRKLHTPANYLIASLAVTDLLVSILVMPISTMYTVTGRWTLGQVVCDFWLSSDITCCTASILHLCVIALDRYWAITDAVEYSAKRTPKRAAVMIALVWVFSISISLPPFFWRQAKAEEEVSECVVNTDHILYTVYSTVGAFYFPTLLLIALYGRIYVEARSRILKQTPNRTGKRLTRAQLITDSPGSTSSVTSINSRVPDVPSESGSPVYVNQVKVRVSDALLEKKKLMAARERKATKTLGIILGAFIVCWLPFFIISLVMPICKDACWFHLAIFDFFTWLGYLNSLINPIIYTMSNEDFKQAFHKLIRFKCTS

## CN1C[C@H](C(=O)N[C@]2(C)O[C@@]3(O)[C@@H]4CCC(O)N4C(=O)[C@H](Cc4ccccc4)N3C2=O)C[C@@H]2c3cccc4[nH]cc(c34)C[C@H]21 (stereo partly drawn) [8′-OH DHE, 8′-Hydroxy-Dihydroergotamine]
[1]
  EC50: 0.73 nM
[2]; Serotonin 5-HT5A, aequorin, read-out: Functional activity (antagonist)
  IC50: 73.3 nM
[3]; Adrenergic α1D, aequorin, vs reference agonist at EC80, read-out: Functional activity (antagonist)
  IC50: 0.61 nM
[4]
  Activity (Agonism: EC50; Antagonism: IC50): Inactive

## CN1C[C@H](C(=O)N[C@]2(C)O[C@@]3(O)[C@@H]4CCCN4C(=O)[C@H](Cc4ccccc4)N3C2=O)C[C@@H]2c3cccc4[nH]cc(c34)C[C@H]21 [DHE, Dihydroergotamine]
[2]
  IC50: 48.8 nM
[3]
  IC50: 1.32 nM
